Measurements taken from PubChem BioAssay (NCI).
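Step 1: Grow cells in 96-well plates. Step 2: Expose to compound for 48 hours at 5 concentrations. Step 3: Interpolate endpoints linearly; if unreached, use highest concentration. TGI marks complete inhibition of growth.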

Columns and labels:
Experiment in all cases: NCI anticancer screen, dose series, 48 h
ACHN renal = system: ACHN renal
HOP-62 NSCLC = system: HOP-62 NSCLC
IGROV1 ovarian = system: IGROV1 ovarian
LOX IMVI melanoma = system: LOX IMVI melanoma
MDA-MB-231 breast = system: MDA-MB-231 breast
NCI-H23 lung = system: NCI-H23 lung
NCI-H522 lung = system: NCI-H522 lung
OVCAR-5 ovarian = system: OVCAR-5 ovarian
PC-3 prostate = system: PC-3 prostate
SR leukemia = system: SR leukemia

Structure (SMILES) | TGI (ACHN renal) [µM] | TGI (HOP-62 NSCLC) [µM] | TGI (IGROV1 ovarian) [µM] | TGI (LOX IMVI melanoma) [µM] | TGI (MDA-MB-231 breast) [µM] | TGI (NCI-H23 lung) [µM] | TGI (NCI-H522 lung) [µM] | TGI (OVCAR-5 ovarian) [µM] | TGI (PC-3 prostate) [µM] | TGI (SR leukemia) [µM]
CC(=O)Oc1ccc(/C=C/C(=O)O[C@@H](C(=O)O)[C@@H](OC(=O)/C=C/c2ccc(OC(C)=O)c(OC(C)=O)c2)C(=O)O)cc1OC(C)=O | > 100 | > 100 | > 100 | > 100 | > 100 | > 100 | > 100 | > 100 | > 100 | > 100
O=C1c2cn[nH]c2C(c2ccccc2)N1c1ccccc1 (stereo not given) | > 10 | > 10 | > 10 | > 10 | > 10 | > 10 | > 10 | > 10 | > 10 | > 10
CCc1nc2ccc(NCCN(C)C)c3c(=O)c4ccccc4n1c23 | 6.03 | 5.12 | 4.82 | 2.63 | 2.36 | 3.23 | 4.89 | 6.69 | 6.44 | 7.66
C[N+]1(CCN[N+]2(C)CCCCC2)CCc2ccccc2C1 (stereo not given) | > 100 | > 100 | > 100 | > 100 | > 100 | > 100 | > 100 | > 100 | > 100 | > 100
S=C(Nc1ccc2cn[nH]c2c1)Nc1ccc2cn[nH]c2c1 | > 100 | > 100 | > 100 | > 100 | > 100 | > 100 | > 100 | > 100 | > 100 | > 100
COc1ccc(-n2sc3ncccc3c2=O)cc1 | 34.5 | 56.7 | 61.2 | > 100 | 45.1 | 36.8 | 46.4 | 64.2 | 53.5 | 55.1
CSC1NC(c2ccc(Cl)cc2)=C(C#N)C(=O)N1C1OCC(OC(C)=O)C(OC(C)=O)C1OC(C)=O (stereo not given) | > 100 | > 100 | > 100 | > 100 | > 100 | > 100 | > 100 | > 100 | > 100 | > 100
C[Si](C)(C)C1=C([Si](C)(C)C)C(Cl)(Cl)C1=O | 4.9 | 41.4 | 16.1 | 3.51 | 7.85 | 18.4 | 3.6 | 20 | 12.9 | 5.46
COc1ccc(C(OCC2OC(n3ccc(NC(=O)c4ccccc4)nc3=O)CC2OP2(=S)SCCS2)(c2ccccc2)c2ccc(OC)cc2)cc1 (stereo not given) | 61.5 | 43.9 | > 100 | 33.1 | > 100 | > 100 | 53 | 94.6 | 41.5 | > 100
O=[N+]([O-])c1ccc(O)c(/C=N/NC(=S)N2CCCCC2)c1 | 6.97 | > 100 | 8.76 | 17.1 | 52.2 | 32.9 | > 45.3 | > 100 | > 92.7 | > 70.2
Cn1c(N/N=C/c2ccccc2)nc(-c2ccc([N+](=O)[O-])cc2)c(C#N)c1=O | > 100 | > 100 | > 100 | > 100 | 86.7 | > 100 | > 100 | > 100 | > 100 | > 100
COc1cc(C2c3cc4c(cc3OC(N3CCNCC3)C2C)OCO4)cc(OC)c1OC (stereo not given) | 48.7 | 27.3 | 17.5 | 19 | 2.46 | > 100 | 8.32 | > 100 | > 34.4 | 3.88
COc1cc(N(Cc2ccc3oc(=O)c(-c4ccccc4)nc3c2)Cc2ccc3oc(=O)c(-c4ccccc4)nc3c2)cc(OC)c1OC | > 10 | > 10 | > 10 | > 10 | > 10 | > 10 | > 10 | > 10 | > 10 | > 10
CC1(C)CC(=O)C2=C(C1)OC1=C(CC(C)(C)CC1=O)C2c1ccccc1[N+](=O)[O-] (stereo not given) | > 100 | > 100 | > 100 | > 100 | > 100 | > 100 | > 100 | > 100 | > 100 | > 100
CC(=O)N(O)c1ccc(-c2nc3ccccc3s2)cc1 | > 100 | > 100 | > 100 | > 100 | > 100 | > 100 | 97.2 | > 100 | > 100 | > 100
C[Si](C)(c1ccccc1)[C@H]1CCCC=C1CCNC1c2ccccc2CCc2ccccc21 | > 100 | > 100 | > 100 | > 100 | > 100 | > 100 | > 100 | > 100 | > 100 | > 100
CC(C)(C)N(Cc1ccc2c(c1)OCO2)C(=O)/C=C\Sc1ccccc1 | > 100 | > 100 | > 100 | > 100 | > 100 | > 100 | 59 | > 100 | > 100 | > 100
COc1cc2nc(-c3cccs3)[nH]c(=O)c2cc1OC | > 100 | > 100 | > 100 | > 100 | > 100 | > 100 | > 100 | > 100 | > 100 | 58.4
CCn1c(SCC(=O)NNC(=S)NC)nc2ccccc2c1=O | > 100 | > 100 | > 100 | > 100 | > 100 | > 100 | > 100 | > 100 | > 100 | > 100
C/C1=C\C=C(\C(C)C)CC/C(C(=O)O)=C\CC/C(C)=C/CC1 | > 100 | 48 | > 100 | 49.5 | 39.2 | 42.7 | 39.5 | 78 | 35.2 | 38.6
CC1CC(=O)N(N(C)C)C(C#N)(C#N)C1(C#N)C#N (stereo not given) | 29.3 | > 60.6 | 40 | 42.7 | 28.9 | 43.8 | 7.73 | 51.8 | 34.8 | 30.7
CC(=N\N)/C(C)=N/N=C(C)/C(C)=N/N=C(C)/C(C)=N/N | > 100 | > 100 | > 100 | > 100 | > 100 | > 100 | > 100 | > 100 | > 100 | > 100
CN(C)c1cccc(NC2=NCCO2)c1 | > 100 | > 100 | > 100 | > 100 | > 100 | 85.3 | > 100 | > 100 | > 100 | 99.6
Fc1cccc(F)c1C1SCc2nc3ccc(Cl)cc3n21 (stereo not given) | > 100 | > 100 | > 100 | > 100 | > 100 | > 100 | > 100 | > 100 | > 100 | > 100
O=C1C(CN2CCOCC2)CCCC1CN1CCOCC1 (stereo not given) | 3.53 | > 100 | 17.3 | 8.98 | 19.8 | 16.9 | 0.156 | 36.6 | 28.9 | > 100
CNc1ncc(-c2nnnn2-c2ccccc2)c(CN(C)C)n1 | > 100 | > 100 | > 100 | > 100 | > 100 | > 100 | > 100 | > 100 | > 100 | > 100
COC(=O)c1ccc(Nc2nc3nc[nH]c3c(=O)[nH]2)cc1 | > 100 | > 100 | > 100 | > 100 | > 100 | > 100 | > 100 | > 100 | > 100 | > 100
Cc1ccc2c(c1)C(=O)C(C1OC(=O)c3ccccc31)C2 (stereo not given) | > 100 | > 100 | > 100 | > 100 | > 100 | > 100 | > 100 | > 100 | > 100 | > 100
